The results in this text go back to ChEMBL document CHEMBL1146745, “Studies on anti-Helicobacter pylori agents. Part 3: A novel, efficacious cephem derivative, FR193879” (Bioorg Med Chem Lett, 2004).

Molecules are shown by their SMILES. Values after ≈ are worked out from the molar mass of the structure shown.

In data set [1] the test system is Helicobacter pylori. The experiment in a line: Minimum inhibitory activity against clarithromycin- and metronidazole-resistant strain 15069. The format is functional.
The subject of data set [2] is Helicobacter pylori. In words: Minimum inhibitory activity against clarithromycin- and metronidazole-resistant strain 16043. The format is functional.
For data set [3], the system named is Helicobacter pylori. In words: Minimum inhibitory activity against clarithromycin- and metronidazole-resistant strain 16021. Type of data set: functional.
Data set [4] relates to Helicobacter pylori. The experiment in a line: Minimum inhibitory concentration against Helicobacter pylori FP1757. Type of data set: functional.
The nature of data set [5]: Partition coefficient by HPLC retention as an index of polarity. The format is ADME. Particulars: octanol/water.
A short description of data set [6]: Therapeutic efficacy at a dose of 0.32 mg/kg. Also on record: dose 0.32 mg/kg. The format is ADME, organism-based. As to conditions: in vivo.
The nature of data set [7]: Therapeutic efficacy at a dose of 0.1 mg/kg. Type of data set: ADME, organism-based. Also on record: dose 0.1 mg/kg. As to conditions: in vivo.
Data set [8] concerns Rattus norvegicus. The experiment in a line: Recovery rate from urine and bile was determined after iv administration at 20 mg/kg in rats. The format is functional, organism-based. On the set-up: dose 20 mg/kg.
Data set [9] deals with Bacteroides fragilis. The experiment in a line: Stability towards beta-lactamase was determined in […] FP784. Type of data set: functional, organism-based.
Data set [10] has as its system Helicobacter pylori. The experiment in a line: Minimum inhibitory activity against Helicobacter pylori FP1757. Type of data set: functional.
Data set [11] deals with Helicobacter pylori. In words: Minimum inhibitory activity against Helicobacter pylori FP1836. The format is functional.
Data set [12] is described as follows: Retention time by HPLC as an index of polarity.
Data set [13] concerns Canis familiaris. The experiment in a line: Non-toxic dose in dogs after 4 weeks of oral administration. Type of data set: functional, Canis lupus familiaris.
A short description of data set [14]: Therapeutic efficacy at an oral dose of 0.1 mg/kg in mouse. The format is ADME, organism-based. On the set-up: dose 0.1 mg/kg, route oral. As to conditions: in vivo.
Data set [15] in a line: Therapeutic efficacy at an oral dose of 2 mg/kg in guinea pig. The format is ADME, organism-based. On the set-up: dose 2 mg/kg, route oral. Particulars: in vivo.
The test system of data set [16] is Rattus norvegicus. The experiment in a line: In vivo gastric mucosa concentration administered perorally at 20 mg/kg was determined in rats at 2 hr. As to conditions: route oral. Type of data set: functional.
A short description of data set [17]: Therapeutic efficacy at an oral dose of 0.125 mg/kg in guinea pig. The format is ADME, organism-based. Also on record: dose 0.125 mg/kg, route oral. Particulars: in vivo.
The subject of data set [18] is Rattus norvegicus. In words: In vivo gastric mucosa concentration administered perorally at 20 mg/kg was determined in rats at 0.5 hr. As to conditions: route oral. Type of data set: functional.
Data set [19] in a line: Therapeutic efficacy at an oral dose of 0.032 mg/kg in mouse. Particulars: in vivo. On the set-up: dose 0.032 mg/kg, route oral. Type of data set: ADME, organism-based.
A short description of data set [20]: Solubility at a pH of 2.0. Type of data set: physicochemical. As to conditions: pH 2.
The test system of data set [21] is Rattus norvegicus. The experiment in a line: In vivo gastric mucosa concentration administered perorally at 20 mg/kg was determined in rats at 1 hr. Type of data set: functional. As to conditions: route oral.
Data set [22] can be described thus: Therapeutic efficacy at an oral dose of 0.5 mg/kg in guinea pig. The format is ADME, organism-based. Also on record: dose 0.5 mg/kg, route oral. Particulars: in vivo.
Data set [23] is described as follows: Therapeutic efficacy at an oral dose of 0.32 mg/kg in mouse. Type of data set: ADME, organism-based. Also on record: dose 0.32 mg/kg, route oral. Particulars: in vivo.
Data set [24] relates to Rattus norvegicus. In words: In vivo gastric mucosa concentration administered perorally at 20 mg/kg was determined in rats at 4 hr. Type of data set: functional. As to conditions: route oral.
Data set [25] in a line: Solubility at a pH of 4.0. The format is physicochemical. As to conditions: pH 4.
Data set [26] concerns Bacteroides fragilis. In words: Relative stability towards beta-lactamase was determined in […] FP784. The format is functional.

Take `Cc1ncc([N+](=O)[O-])n1CCO` [METRONIDAZOLE]: the MIC (commonly the least concentration at which growth counts as inhibited) in [1] is 25 µg/mL (≈ 146 µM); in data set [2], 50 µg/mL (≈ 292 µM); in data set [3], 50 µg/mL (≈ 292 µM).
`Cc1nnc(SC2=C(C(=O)O)N3C(=O)[C@@H](NC(=O)Cc4csc(N)n4)[C@H]3SC2)s1`: the MIC in data set [4] turned out to be 0.00078 µg/mL (≈ 0.00166 µM). The HPLC retention time in data set [5] came to 1 min. The Ratio is 1 in data set [6] and 0 in data set [7].
As to `O=C(Cc1ccccc1)NC1C(=O)N2C(C(=O)O)=C(Sc3nccs3)CS[C@H]12` (some centres undefined), the Recovery rate in data set [8] was found to be 63%.
In the case of `O=C(N[C@H](CO)[C@H](O)c1ccc([N+](=O)[O-])cc1)C(Cl)Cl` [CHLORAMPHENICOL], the results for the MIC in data set [1], in data set [2] and in data set [3] were 25 µg/mL (≈ 77.4 µM), 50 µg/mL (≈ 155 µM) and 50 µg/mL (≈ 155 µM), respectively.
For `O=C(Cc1cccs1)N[C@@H]1C(=O)N2C(C(=O)[O-])=C(C[n+]3ccccc3)CS[C@H]12`, the Km (as a rule, the substrate concentration at which the rate is half of its maximum) in data set [9] came to 31.7 µg/mL.
In the case of `O=C(Cc1ccccc1)NC1C(=O)N2C(C(=O)O)=C(Sc3nncs3)CS[C@H]12` (some centres undefined), the Recovery rate in [8] is 9%.
Take `CC1(C)S[C@@H]2[C@H](NC(=O)[C@H](N)c3ccc(O)cc3)C(=O)N2[C@H]1C(=O)O` [AMOXICILLIN]: the MIC is 0.2 µg/mL (≈ 0.547 µM) in data set [1], 0.05 µg/mL (≈ 0.137 µM) in data set [2] and 0.025 µg/mL (≈ 0.0684 µM) in data set [3]. In addition, the MIC50 (commonly the lowest concentration that inhibits either 50% of growth or 50% of the strains tested, depending on the study) in data set [10] came out at 0.0125 µg/mL (≈ 0.0342 µM); in data set [11] it was 0.05 µg/mL (≈ 0.137 µM). The Km in [9] was 27.3 µg/mL. In addition, the Vmax in data set [9] came out at 0.0175.
In [8], `Cc1nnc(SC2=C(C(=O)O)N3C(=O)C(NC(=O)Cc4ccccc4)[C@H]3SC2)s1` (some centres undefined) had a Recovery rate of 33%. In addition, the HPLC retention time in data set [12] and in [5] was 10 min in each case. Also, the Dose in data set [13] is under 32 mg/kg. The molecule further had an MIC in data set [4] of 0.00156 µg/mL (≈ 0.00348 µM). For the same molecule, the Ratio was 2 in [14]; 5 in [15]; 0 in data set [17]; 1 in [19]; 2 in data set [22]; 5 in data set [23]. Moreover, the Ratio in data set [6] turned out to be 5; in [7], 2. Also, the Gastric concentration in [16] was determined as 48 µg/g; in data set [18] it was 89 µg/g; in data set [21], 83 µg/g; in data set [24], 23 µg/g. In addition, the values for the solubility in [20] and in data set [25] were 53 µg/mL (≈ 118 µM) and 1050 µg/mL (≈ 2340 µM), respectively. The molecule further gave an MIC50 in [11] of 0.00313 µg/mL (≈ 0.00698 µM).
`NC(=O)Cc1csc(SC2=C(C(=O)O)N3C(=O)[C@@H](NC(=O)Cc4ccccc4)[C@H]3SC2)n1`: the Recovery rate in data set [8] was determined as 68%. The HPLC retention time in [12] turned out to be 6.2 min. Besides, the values for the MIC in data set [1], in data set [2] and in data set [3] were 0.0063 µg/mL (≈ 0.0128 µM), 0.0016 µg/mL (≈ 0.00326 µM) and 0.0016 µg/mL (≈ 0.00326 µM), respectively. In data set [13], this molecule had a Dose of over 100 mg/kg. For the same molecule, the Ratio in data set [26] came to 1.06; in data set [14] it was 4; in data set [15] it was 5; in data set [17], 0; in data set [19], 1; in data set [22], 3. Also, in data set [23], the Ratio is 5. Further, the figures for the MIC50 in data set [10] and in [11] were 0.00078 µg/mL (≈ 0.00159 µM) and 0.00313 µg/mL (≈ 0.00638 µM), respectively. For the same molecule, the Gastric concentration amounted to 68 µg/g in data set [16], 385 µg/g in [18], 163 µg/g in [21] and 38 µg/g in data set [24]. Besides, the figures for the solubility in [20] and in data set [25] were 431 µg/mL (≈ 879 µM) and 2210 µg/mL (≈ 4500 µM), respectively. The Km in data set [9] worked out at 19.4 µg/mL. In data set [9], the Vmax was found to be 0.647.
On to `O=C(O)Cc1csc(SC2=C(C(=O)O)N3C(=O)[C@@H](NC(=O)Cc4ccccc4)[C@H]3SC2)n1`, for which the HPLC retention time in data set [12] is given as 9.9 min. The Ratio in data set [14] came out at 1; in data set [15] it was 2; in data set [17], 0; in data set [19], 2; in data set [22] it was 0; in data set [23] it was 5. Further, the figures for the MIC50 in data set [10] and in [11] were 0.00039 µg/mL (≈ 0.000793 µM) and 0.00313 µg/mL (≈ 0.00637 µM), respectively. Further, the Gastric concentration came to 111 µg/g in [16], 377 µg/g in data set [18], 150 µg/g in data set [21] and 63 µg/g in data set [24]. Besides, the solubility (usually how much of the substance goes into solution per volume) in data set [20] came to 125 µg/mL (≈ 254 µM); in data set [25], 1820 µg/mL (≈ 3700 µM).
In [8], `O=C(Cc1ccccc1)NC1C(=O)N2C(C(=O)O)=C(Sc3cnns3)CS[C@H]12` (some centres undefined) registered a Recovery rate of 21%.
